From ChEMBL document CHEMBL1123660 (J Med Chem, 1987) come the findings set out here.

Assay [1] concerns Platelet-activating factor receptor (Oryctolagus cuniculus). Briefly: Percent inhibition of [3H]PAF to platelet-activating factor (PAF) receptor from rabbit platelet membranes at. The note with it: concentration not given here.
The species entered for assay [2] is Oryctolagus cuniculus. Briefly: PAF antagonism was determined by rabbit platelet inhibition and neurophil aggregation and degranulation at 0.1 to 1 uM concentration. The assay is classed as functional.

Structures are written as SMILES.

In assay [1], `CCCC1=C[C@]2(OC)C(=CC1=O)O[C@H](c1ccc(OC)c(OC)c1)[C@H]2C` registered an inhibition of 61%.
In assay [2], `C=CCC1=C[C@@]2(OC)C(=CC1=O)O[C@H](c1ccc(OC)c(OC)c1)[C@H]2C` (stereo in doubt) [KADSURENONE] returned a Ki of 58 nM.

In general, inhibition refers to the change of the read-out against control, counted positive when it falls. Read a low inhibition as a weak effect. The term Ki denotes the equilibrium dissociation constant of an inhibitor or competing ligand from its target.
